The record followed here is patent US11084809B2, “N-((HET)arylmethyl)-heteroaryl-carboxamides compounds as kallikrein inhibitors” (KALVISTA PHARMACEUTICALS LIMITED, priority 2014, dated 2021).

Where only a bound is given, the exact number is not on record here.

For orientation: IC50 means the concentration at which inhibition is half-maximal.

Assay type in all cases: biochemical
One test addresses Human KLK1 (Homo sapiens (Human), UniProt P06870). The test is described as follows: Determination of the IC50 for KLK1. The following applies: human KLK1, 25° C., substrate H-DVal-Leu-Arg-AFC. The procedure:
Determination of the IC50 for KLK1
Human KLK1 (Callbiochem) was incubated at 25° C. with the fluorogenic substrate H-DVal-Leu-Arg-AFC and various concentrations of the test compound. Residual enzyme activity (initial rate of reaction) was determined by measuring the change in […] at 410 nm and the IC50 value for the test compound was determined.

A further test has as its target Human XIa (Homo sapiens (Human), UniProt P03951). The test is described as follows: Determination of the % inhibition for XIa. The conditions noted are these: 40 μM test compound, 25° C. The procedure:
Determination of the % Inhibition for XIa
Human XIa (Enzyme Research Laboratories) was incubated at 25° C. with the fluorogenic substrate Z-Gly-Pro-Arg-AFC and 40 μM of the test compound. Residual enzyme activity (initial rate of reaction) was determined by measuring the change in optical absorbance at 410 nm.

For a further test, the target named is Human plasma kallikrein (Homo sapiens (Human), UniProt P03952). The test is described as follows: Determination of the IC50 for plasma kallikrein. The conditions noted are these: read-out: IC50 (human PKal). The procedure:
Determination of the IC50 for plasma kallikrein
Human plasma kallikrein (Protogen) was incubated at 25° C. with the fluorogenic substrate H-DPro-Phe-Arg-AFC and various concentrations of the test compound. Residual enzyme activity (initial rate of reaction) was determined by measuring the change in […] at 410 nm and the IC50 value for the test compound was determined.

Human XIa, sequence (P03951 388-625): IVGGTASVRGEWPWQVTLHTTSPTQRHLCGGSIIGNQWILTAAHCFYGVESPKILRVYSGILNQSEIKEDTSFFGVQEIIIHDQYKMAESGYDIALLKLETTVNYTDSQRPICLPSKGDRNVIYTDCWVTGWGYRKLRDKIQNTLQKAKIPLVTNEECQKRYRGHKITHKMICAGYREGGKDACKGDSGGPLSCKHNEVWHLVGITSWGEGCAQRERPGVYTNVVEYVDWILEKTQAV
Human XIa, sequence (P03951 19-387 partner): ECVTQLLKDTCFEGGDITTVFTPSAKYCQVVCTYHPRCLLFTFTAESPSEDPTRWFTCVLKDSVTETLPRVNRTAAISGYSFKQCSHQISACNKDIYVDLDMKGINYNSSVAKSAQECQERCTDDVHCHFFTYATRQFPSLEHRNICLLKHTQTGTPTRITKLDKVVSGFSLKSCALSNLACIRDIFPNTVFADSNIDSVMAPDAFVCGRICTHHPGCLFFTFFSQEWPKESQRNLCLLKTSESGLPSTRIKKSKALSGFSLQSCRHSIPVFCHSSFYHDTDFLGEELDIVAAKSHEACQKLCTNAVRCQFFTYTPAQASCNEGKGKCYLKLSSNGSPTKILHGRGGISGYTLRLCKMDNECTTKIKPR
Human KLK1, sequence (P06870 25-262): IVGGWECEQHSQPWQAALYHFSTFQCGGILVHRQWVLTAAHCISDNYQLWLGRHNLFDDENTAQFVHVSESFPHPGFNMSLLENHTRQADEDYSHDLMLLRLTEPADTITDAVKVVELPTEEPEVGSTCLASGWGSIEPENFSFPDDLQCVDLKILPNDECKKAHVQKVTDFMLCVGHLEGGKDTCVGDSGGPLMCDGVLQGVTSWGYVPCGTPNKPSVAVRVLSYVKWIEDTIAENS
Human plasma kallikrein, sequence (P03952 391-638): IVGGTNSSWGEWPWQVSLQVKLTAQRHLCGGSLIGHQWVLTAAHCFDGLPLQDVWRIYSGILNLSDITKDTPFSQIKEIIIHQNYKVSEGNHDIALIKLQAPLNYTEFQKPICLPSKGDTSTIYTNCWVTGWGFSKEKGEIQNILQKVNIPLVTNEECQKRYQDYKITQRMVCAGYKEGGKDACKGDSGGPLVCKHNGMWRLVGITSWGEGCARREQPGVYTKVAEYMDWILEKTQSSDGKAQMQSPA
Human plasma kallikrein, sequence (P03952 20-390 partner): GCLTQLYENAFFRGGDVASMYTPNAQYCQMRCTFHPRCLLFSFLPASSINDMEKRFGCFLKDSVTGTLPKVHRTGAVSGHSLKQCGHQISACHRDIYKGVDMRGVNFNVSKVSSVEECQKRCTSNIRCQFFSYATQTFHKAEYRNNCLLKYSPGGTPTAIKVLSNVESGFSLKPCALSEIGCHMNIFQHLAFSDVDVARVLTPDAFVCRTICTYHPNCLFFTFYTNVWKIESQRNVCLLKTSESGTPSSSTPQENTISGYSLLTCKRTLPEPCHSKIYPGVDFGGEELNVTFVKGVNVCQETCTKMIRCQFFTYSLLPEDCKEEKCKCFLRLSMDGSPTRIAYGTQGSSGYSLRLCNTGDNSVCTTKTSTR

At Human KLK1, `CCOc1cccc(CNC(=O)c2cn(Cc3ccc(Cn4cc(C)cn4)cc3)nc2C(F)(F)F)c1` [Example 6, N-[(3-ethoxyphenyl)methyl]-1-({4-[(4-methylpyrazol-1-yl)methyl]phenyl}methyl)-3-(trifluoromethyl)pyrazole-4-carboxamide] came in with an IC50 above 10000 nM. Moreover, the “% Inhibition @ 40 μM (human FXIa)” value on Human XIa came to 0%.

For `NC(=O)c1cccc(CNC(=O)c2cn(Cc3ccc(Cn4ccccc4=O)cc3)nc2C2CC2)c1` [Example 49, N-[(3-carbamoylphenyl)methyl]-3-cyclopropyl-1-({4-[(2-oxopyridin-1-yl)methyl]phenyl}methyl)pyrazole-4-carboxamide], the “% Inhibition @ 40 μM (human FXIa)” value on Human XIa turned out to be 0%.

Take `COc1cccc(CNC(=O)c2cn(Cc3ccc(Cn4ccccc4=O)cc3)nc2C2CC2)c1F` [Example 52, 3-cyclopropyl-N-[(2-fluoro-3-methoxyphenyl)methyl]-1-({4-[(2-oxopyridin-1-yl)methyl]phenyl}methyl)pyrazole-4-carboxamide]: at Human XIa, the “% Inhibition @ 40 μM (human FXIa)” value was 1%.

In the case of `Nc1nn(Cc2ccc(Cn3ccccc3=O)cc2)cc1C(=O)NCc1ccc(OC(F)(F)F)cc1` [Example 58, 3-amino-1-({4-[(2-oxopyridin-1-yl)methyl]phenyl}methyl)-N-{[4-(trifluoromethoxy)phenyl]methyl}pyrazole-4-carboxamide], the “% Inhibition @ 40 μM (human FXIa)” value on Human XIa is 0%.

In the case of “N-[(2,4-dimethylphenyl)methyl]-1-({4-[(4-methylpyrazol-1-yl)methyl]phenyl}methyl)-3-(trifluoromethyl)pyrazole-4-carboxamide [Example 24]”, the IC50 on Human plasma kallikrein was 717 nM; against Human KLK1 it was above 10000 nM.

For “N-[(2,6-dimethylphenyl)methyl]-1-({4-[(4-methylpyrazol-1-yl)methyl]phenyl}methyl)-3-(trifluoromethyl)pyrazole-4-carboxamide [Example 25]”, the IC50 was 1840 nM at Human plasma kallikrein and above 10000 nM at Human KLK1.
